Test results reported in US4503060A, “3-Imino-3H-dibenzo-[c,f]-imidazo-[1,5-a]azepine pharmaceuticals” (Boehringer Ingelheim KG, priority 1981, dated 1985).

Key:
[1] = system: passive cutaneous anaphylaxis (PCA); experiment: passive cutaneous anaphylaxis (PCA) in rats after passive sensitization with IgE antibodies and antigen provocation; type: in vivo; details: po; Rat
Experimental: (a) Tests on allergized rats were carried out after passive sensitization of the animals with IgE antibodies and subsequent antigen provocation. In this way, passive cutaneous anaphylaxis (PCA) was produced (Goose et al [1969]: Immunology 16, 749).

[2] = system: histamine wheal; experiment: histamine wheal (antihistaminic activity) in rats, Evans Blue extravasation; type: in vivo
From the text: (b) Antihistaminic activity:
The results were quantified by measuring the wheal after extravasation of Evans Blue dye into the skin.

[3] = in vivo; details: mouse, po

With `Br.Cn1cc2n(c1=N)-c1ccccc1Cc1ccccc1-2` [Example 2, 2-Methyl-3-imino-2,3-dihydro-9H-dibenz-[c,f]-imidazo-[1,5-a]-azepine hydrobromide] the ED50 [1] was 1.1 mg/kg, the “Histamine Wheal (rat) i.v.” value ([2]; i.v.) was 0.07 and the “Histamine Wheal (rat) p.o.” value ([2]; p.o.) was 2.7. The LD50 [3] was 280 mg/kg.
